Laboratory results reported in US11286252B2, “Alkene spirocyclic compounds as farnesoid X receptor modulators” (BRISTOL-MYERS SQUIBB COMPANY, priority 2017, dated 2022).

Molecular target: T1, human FXR (Homo sapiens, UniProt Q96RI1)
T1 construct: expressed in transfected cells; host or cells: HEK293 cells stably carrying a 5xGal4-response-element firefly luciferase reporter, transiently transfected with pcDNA3.1-Gal4-FXR
T1 sequence (Q96RI1 262-486 limits assumed): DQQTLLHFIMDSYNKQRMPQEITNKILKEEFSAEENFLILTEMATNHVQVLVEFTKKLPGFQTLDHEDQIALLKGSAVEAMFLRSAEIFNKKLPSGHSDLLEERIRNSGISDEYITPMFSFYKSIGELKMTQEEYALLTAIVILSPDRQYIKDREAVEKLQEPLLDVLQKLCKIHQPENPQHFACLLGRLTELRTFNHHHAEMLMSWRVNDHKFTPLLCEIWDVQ
Experiment: transient human FXR/Gal4-luciferase reporter assay
Format: cell-based
Details: Gal4-hFXR fusion construct, luciferase reporter HEK293 cells, response relative to 8 μM GW-4064
Protocol: The exemplified compounds of the present invention were tested in the transient human FXR/Gal4-luciferase reporter assay, and assay results were reported in Table 1 and Examples 1 to 3 together with other analytical data.
A Gal4-hFXR fusion construct reporter system was used as the primary assay to characterize compound activity. A construct including 5 copies of the Gal4 promoter response element upstream of a firefly luciferase reporter cDNA was stably expressed in HEK293 cells. This reporter cell line was maintained in Dulbecco's Modified Eagle's medium (DMEM; Gibco) supplemented with 1% penicillin-streptomycin (P/S) solution, 500 μg/mL Zeocin and 10% charcoal/dextran-treated fetal bovine serum (cs-FBS) at 37° C. in a humidified 5% CO2 atmosphere. Another plasmid was constructed in which the human cytomegalovirus promoter in the pcDNA3.1 vector directs the expression of the cDNA encoding a fusion protein comprised of the DNA binding domain from the Gal4 transcription factor fused to the ligand binding domain from human FXR.
The day prior to transfection, the reporter cells in culture are detached from the plate with trypsin and plated into a T75 flask at a sufficient density to achieve approximately 90% confluence the next morning. The transfection reagents are prepared by separately diluting 25 μg of the pcDNA3.1-Gal4-FXR plasmid into 1.87 mL of Opti-MEM (Thermo-Fisher), and 40 μL of Lipofectamine 2000 (Thermo-Fisher) into 1.87 mL of Opti-MEM, and then adding the diluted DNA solution into the diluted Lipofectamine 2000 solution and incubating at room temperature for 15-20 minutes. The mixture is further diluted with 10 mL of a solution comprised of DMEM, 10% cs-FBS, and 1% P/S immediately prior to transferring to the cells. The maintenance culture media is aspirated from the cells and the final transfection mixture is added before the cells are incubated overnight at 37° C. in a humidified 5% CO2 atmosphere. This protocol can be scaled up, and the transiently transfected cells can be cryopreserved in an assay-ready format.
For compound testing, 100 nL of the compounds (serial dilutions in DMSO) are dispensed with an Echo acoustic dispenser (Labcyte) into the wells of a Corning/Costar clear bottom 384-well white plate. The transfected cells are harvested, counted, and diluted such that 10-25,000 cells in 25 μL are plated into each well of the 384-well compound assay plate. The compound-treated cells are incubated overnight at 37° C. in a humidified 5% CO2 atmosphere. The next morning 25 μL of Steady-Glo (Promega) are added to each well of the plate, the mixture is incubated for 15 min. with shaking, and luminescence is measured on an Envision (Perkin Elmer) plate reader. Background counts from cells treated with DMSO alone are subtracted from all raw counts, and the corrected values are converted to a percentage of the control response attained with 8 μM GW-4064.

Row | EC50 | EC50 (unit inferred) | SMILES
1 | – | 22 nM | O=C(O)c1ncc(OCC2CC3(CC(/C=C/c4c(-c5c(Cl)cncc5Cl)noc4C4CC4)C3)C2)cc1OC1CCC1 (stereo not drawn) [Example 58]
2 | – | 393 nM | NC(=O)c1ncc(OCC2CC3(CC(/C=C/c4c(-c5ccccc5C(F)(F)F)noc4C4CC4)C3)C2)cc1OC1CCC1 (stereo not drawn) [Example 63]
3 | – | 18 nM | O=C(O)c1cc(O[C@H]2CCOC2)c2cc(N3CC4(CC(/C=C/c5c(-c6ccccc6C(F)(F)F)noc5C5CC5)C4)C3)ccc2n1 [Example 21]
4 | – | 104 nM | COc1cc(C(=O)O)nc2ccc(N3CC4(CC(/C=C/c5c(-c6ccccc6C(F)(F)F)noc5C5CC5)C4)C3)cc12 [Example 16]
5 | – | 22 nM | O=C(O)c1cc(C(F)(F)F)c2cc(OCC3CC4(CC(/C=C/c5c(-c6c(Cl)cncc6Cl)noc5C5CC5)C4)C3)ccc2n1 (stereo not drawn) [Example 46]
6 | – | 1630 nM | COc1cc(C(=O)O)nc2ccc(N3CC4(CC(/C=C/c5c(-c6c(Cl)cncc6Cl)noc5C5CC5)C4)C3)nc12 [Example 28]
7 | – | 34 nM | O=C(O)c1cc(OCC2CC3(CC(/C=C/c4c(-c5c(Cl)cncc5Cl)noc4C4CC4)C3)C2)n(C2CC2)n1 (stereo not drawn) [Example 60]
8 | – | 60 nM | O=C(O)c1cc(C(F)(F)F)c2cc(N3CC4(CC(/C=C/c5c(-c6c(Cl)cccc6Cl)noc5C5CC5)C4)C3)ccc2n1 [Example 4]
9 | – | 33 nM | O=C(O)c1cc(O[C@@H]2CCOC2)c2cc(N3CC4(CC(/C=C/c5c(-c6ccccc6C(F)(F)F)noc5C5CC5)C4)C3)ccc2n1 [Example 20]
10 | – | 82 nM | O=C(O)c1cc(C(F)(F)F)c2cc(OCC3CC4(CC(/C=C/c5c(-c6ccccc6C(F)(F)F)noc5C5CC5)C4)C3)ccc2n1 (stereo not drawn) [Example 52]
11 | – | 99 nM | Cn1nc(C(=O)O)cc1OCC1CC2(CC(/C=C/c3c(-c4ccccc4C(F)(F)F)noc3C3CC3)C2)C1 (stereo not drawn) [Example 51]
12 | – | 36 nM | O=C(O)c1ncc(OCC2CC3(CC(/C=C/c4c(-c5ccccc5C(F)(F)F)noc4C4CC4)C3)C2)cc1OC1CCC1 (stereo not drawn) [Example 62]
13 | – | 187 nM | O=C(O)c1ccc2cc(OCC3CC4(CC(/C=C/c5c(-c6ccccc6C(F)(F)F)noc5C5CC5)C4)C3)ccc2n1 (stereo not drawn) [Example 53]
14 | – | 85 nM | O=C(O)c1cc(OC2CCC2)c2cc(N3CC4(CC(/C=C/c5c(-c6c(Cl)cncc6Cl)noc5C5CC5)C4)C3)ccc2n1 [Example 17]
15 | – | 178 nM | NC(=O)Cc1ccc(OCC2CC3(CC(/C=C/c4c(-c5ccccc5C(F)(F)F)noc4C4CC4)C3)C2)cc1 (stereo not drawn) [Example 49]
16 | – | 114 nM | O=C(O)c1cc(OC2COC2)c2cc(N3CC4(CC(/C=C/c5c(-c6c(Cl)cncc6Cl)noc5C5CC5)C4)C3)ccc2n1 [Example 24]
17 | – | 169 nM | COc1nc(C(=O)O)cc2ccc(N3CC4(CC(/C=C/c5c(-c6ccccc6C(F)(F)F)noc5C5CC5)C4)C3)cc12 [Example 19]
18 | – | 429 nM | Cc1nc(C(=O)O)cc2ccc(N3CC4(CC(/C=C/c5c(-c6c(Cl)cncc6Cl)noc5C5CC5)C4)C3)cc12 [Example 13]
19 | – | 52 nM | O=C(O)c1cc(OC2COC2)c2cc(N3CC4(CC(/C=C/c5c(-c6ccccc6C(F)(F)F)noc5C5CC5)C4)C3)ccc2n1 [Example 18]
20 | – | 79 nM | CC(C)Oc1cc(C(=O)O)nc2ccc(N3CC4(CC(/C=C/c5c(-c6c(Cl)cncc6Cl)noc5C5CC5)C4)C3)cc12 [Example 11]
21 | – | 153 nM | CCOc1cc(C(=O)O)nc2ccc(N3CC4(CC(/C=C/c5c(-c6cccnc6C(F)(F)F)noc5C5CC5)C4)C3)cc12 [Example 25]
22 | – | 153 nM | NC(=O)c1ncc(OCC2CC3(CC(/C=C/c4c(-c5c(Cl)cncc5Cl)noc4C4CC4)C3)C2)cc1OC1CCC1 (stereo not drawn) [Example 65]

Row | EC50 | EC50 (unit inferred) | SMILES
23 | 155 nM | – | COc1cc(C(=O)O)nc2ccc(N3CC4(CC(/C=C/c5c(-c6c(Cl)cncc6Cl)noc5C5CC5)C4)C3)cc12 [Example 1, (E)-6-(6-(2-(5-Cyclopropyl-3-(3,5-dichloropyridin-4-yl)isoxazol-4-yl)vinyl)-2-azaspiro[3.3]heptan-2-yl)-4-methoxyquinoline-2-carboxylic acid]
24 | – | 75 nM | O=C(O)c1cc2ccc(OCC3CC4(CC(/C=C/c5c(-c6c(Cl)cncc6Cl)noc5C5CC5)C4)C3)cc2nn1 (stereo not drawn) [Example 57]
25 | – | 231 nM | O=C(O)c1cc(O[C@@H]2CCOC2)c2cc(N3CC4(CC(/C=C/c5c(-c6cccnc6C(F)(F)F)noc5C5CC5)C4)C3)ccc2n1 [Example 26]
26 | – | 85 nM | CC(C)Oc1cc(C(=O)O)nc2ccc(N3CC4(CC(/C=C/c5c(-c6ncccc6C(F)(F)F)noc5C5CC5)C4)C3)cc12 [Example 15]
27 | – | 165 nM | O=C(O)c1cc(OC2COC2)c2cc(N3CC4(CC(/C=C/c5c(-c6cccnc6C(F)(F)F)noc5C5CC5)C4)C3)ccc2n1 [Example 23]
28 | – | 50 nM | O=C(O)c1ncc(OCC2CC3(CC(/C=C/c4c(-c5c(Cl)cncc5Cl)noc4C4CC4)C3)C2)cc1C(F)(F)F (stereo not drawn) [Example 55]
29 | – | 95 nM | O=C(O)c1ncc(OCC2CC3(CC(/C=C/c4c(-c5ccccc5C(F)(F)F)noc4C4CC4)C3)C2)cc1C(F)(F)F (stereo not drawn) [Example 56]
30 | 501 nM | – | COc1cc(C(=O)O)nc2ccc(N3CC4(CC(/C=C/c5c(-c6ccncc6Cl)noc5C5CC5)C4)C3)cc12 [Example 2, (E)-6-(6-(2-(3-(3-chloropyridin-4-yl)-5-cyclopropylisoxazol-4-yl)vinyl)-2-azaspiro[3.3]heptan-2-yl)-4-methoxyquinoline-2-carboxylic acid]
31 | – | 130 nM | O=C(O)c1ccc(N2CC3(CC(/C=C/c4c(-c5c(Cl)cccc5Cl)noc4C4CC4)C3)C2)cc1 [Example 5]
32 | – | 142 nM | Cc1cc(OCC2CC3(CC(/C=C/c4c(-c5ccccc5C(F)(F)F)noc4C4CC4)C3)C2)cnc1C(=O)O (stereo not drawn) [Example 50]
33 | – | 302 nM | CN1CCN(c2cc(C(=O)O)nc3ccc(OCC4CC5(CC(/C=C/c6c(-c7ccccc7C(F)(F)F)noc6C6CC6)C5)C4)cc23)CC1 (stereo not drawn) [Example 67]
34 | – | 40 nM | O=C(O)c1cccc(OCC2CC3(CC(/C=C/c4c(-c5c(Cl)cncc5Cl)noc4C4CC4)C3)C2)c1 (stereo not drawn) [Example 47]
35 | – | 122 nM | O=C(O)c1cc2ccc(OCC3CC4(CC(/C=C/c5c(-c6ccccc6C(F)(F)F)noc5C5CC5)C4)C3)cc2nn1 (stereo not drawn) [Example 54]
36 | – | 111 nM | COc1cc(C(=O)O)nc2ccc(N3CC4(CC(/C=C/c5c(-c6cccnc6C(F)(F)F)noc5C5CC5)C4)C3)cc12 [Example 22]
37 | – | 530 nM | O=C(O)c1cc(C(F)(F)F)c2cc(N3CC4(CC(/C=C/c5c(-c6c(Cl)cncc6Cl)noc5C5CC5)C4)C3)ccc2n1 [Example 7]
38 | – | 214 nM | NC(=O)c1cccc(OCC2CC3(CC(/C=C/c4c(-c5ccccc5C(F)(F)F)noc4C4CC4)C3)C2)c1 (stereo not drawn) [Example 48]
39 | – | 667 nM | NC(=O)c1ncc(OCC2CC3(CC(/C=C/c4c(-c5ccccc5C(F)(F)F)noc4C4CC4)C3)C2)cc1OC1CC1 (stereo not drawn) [Example 64]
40 | – | 188 nM | CN1CCN(c2cc(C(=O)O)nc3ccc(OCC4CC5(CC(/C=C/c6c(-c7c(Cl)cncc7Cl)noc6C6CC6)C5)C4)cc23)CC1 (stereo not drawn) [Example 66]
41 | – | 302 nM | CCc1nc(C(=O)O)cc2ccc(N3CC4(CC(/C=C/c5c(-c6c(Cl)cncc6Cl)noc5C5CC5)C4)C3)cc12 [Example 14]
42 | – | 140 nM | O=C(O)c1cc(C(F)(F)F)c2cc(N3CC4(CC(/C=C/c5c(-c6ccncc6Cl)noc5C5CC5)C4)C3)ccc2n1 [Example 6]
43 | – | 24 nM | Cn1nc(C(=O)O)cc1OCC1CC2(CC(/C=C/c3c(-c4c(Cl)cncc4Cl)noc3C3CC3)C2)C1 (stereo not drawn) [Example 45]
44 | – | 85 nM | Cc1c(OCC2CC3(CC(/C=C/c4c(-c5c(Cl)cncc5Cl)noc4C4CC4)C3)C2)nn(C(C)C)c1C(=O)O (stereo not drawn) [Example 59]

Row | SMILES | EC50 | EC50 (unit inferred)
45 | O=C(O)c1cc(OC2CCC2)c2cc(N3CC4(CC(/C=C/c5c(-c6cccnc6C(F)(F)F)noc5C5CC5)C4)C3)ccc2n1 [Example 3, (E)-4-Cyclobutoxy-6-(6-(2-(5-cyclopropyl-3-(2-(trifluoromethyl)pyridin-3-yl)isoxazol-4-yl)vinyl)-2-azaspiro[3.3]heptan-2-yl)quinoline-2-carboxylic acid] | 86 nM | –
